According to the supplement of paper PMC11451515:

Tested on: SEM cells
Experiment: cell viability relative to DMSO control; higher = less cytotoxic
Details: 48 h
Method in brief: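 NOMO1 or SEM cells were plated at 500 cells/well and P12-Ichikawa cells at 1000 cells/well in 1536-well plates (5 μl), after each leukemia line had been adapted for at least four passages in each medium. Pin dosing delivered library compounds in DMSO at 11 threefold concentrations, 47 μM to 0.79 nM. CellTiter-Glo One luminescence was read after 48 h at 37°C. Viability is reported as a per-plate percentage of DMSO wells, with cell-free wells as background.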

[1] = HPLM + 10% dialyzed FBS, 0.000781 µM
[2] = HPLM + 10% dialyzed FBS, 0.00234 µM
[3] = HPLM + 10% dialyzed FBS, 0.00702 µM
[4] = HPLM + 10% dialyzed FBS, 0.0211 µM
[5] = HPLM + 10% dialyzed FBS, 0.0632 µM
[6] = HPLM + 10% dialyzed FBS, 0.19 µM
[7] = HPLM + 10% dialyzed FBS, 0.569 µM
[8] = HPLM + 10% dialyzed FBS, 1.71 µM
[9] = HPLM + 10% dialyzed FBS, 5.12 µM
[10] = HPLM + 10% dialyzed FBS, 15.4 µM
[11] = HPLM + 10% dialyzed FBS, 46.1 µM
[12] = RPMI 5 mM glucose + 10% FBS, 0.000781 µM
[13] = RPMI 5 mM glucose + 10% FBS, 0.00234 µM
[14] = RPMI 5 mM glucose + 10% FBS, 0.00702 µM
[15] = RPMI 5 mM glucose + 10% FBS, 0.0211 µM
[16] = RPMI 5 mM glucose + 10% FBS, 0.0632 µM
[17] = RPMI 5 mM glucose + 10% FBS, 0.19 µM
[18] = RPMI 5 mM glucose + 10% FBS, 0.569 µM
[19] = RPMI 5 mM glucose + 10% FBS, 1.71 µM
[20] = RPMI 5 mM glucose + 10% FBS, 5.12 µM
[21] = RPMI 5 mM glucose + 10% FBS, 15.4 µM
[22] = RPMI 5 mM glucose + 10% FBS, 46.1 µM
[23] = RPMI 5 mM glucose + 10% dialyzed FBS, 0.000781 µM
[24] = RPMI 5 mM glucose + 10% dialyzed FBS, 0.00234 µM
[25] = RPMI 5 mM glucose + 10% dialyzed FBS, 0.00702 µM
[26] = RPMI 5 mM glucose + 10% dialyzed FBS, 0.0211 µM
[27] = RPMI 5 mM glucose + 10% dialyzed FBS, 0.0632 µM
[28] = RPMI 5 mM glucose + 10% dialyzed FBS, 0.19 µM
[29] = RPMI 5 mM glucose + 10% dialyzed FBS, 0.569 µM
[30] = RPMI 5 mM glucose + 10% dialyzed FBS, 1.71 µM
[31] = RPMI 5 mM glucose + 10% dialyzed FBS, 5.12 µM
[32] = RPMI 5 mM glucose + 10% dialyzed FBS, 15.4 µM
[33] = RPMI 5 mM glucose + 10% dialyzed FBS, 46.1 µM

SMILES | cell viability [1] [%] | cell viability [2] [%] | cell viability [3] [%] | cell viability [4] [%] | cell viability [5] [%] | cell viability [6] [%] | cell viability [7] [%] | cell viability [8] [%] | cell viability [9] [%] | cell viability [10] [%] | cell viability [11] [%] | cell viability [12] [%] | cell viability [13] [%] | cell viability [14] [%] | cell viability [15] [%] | cell viability [16] [%] | cell viability [17] [%] | cell viability [18] [%] | cell viability [19] [%] | cell viability [20] [%] | cell viability [21] [%] | cell viability [22] [%] | cell viability [23] [%] | cell viability [24] [%] | cell viability [25] [%] | cell viability [26] [%] | cell viability [27] [%] | cell viability [28] [%] | cell viability [29] [%] | cell viability [30] [%] | cell viability [31] [%] | cell viability [32] [%] | cell viability [33] [%]
CC(C)=CCC/C(C)=C/CC/C(C)=C/CC/C(C)=C/CC/C(C)=C/CC/C(C)=C/CC/C(C)=C/CC/C(C)=C/CC/C(C)=C/CO | 94.8 | 109 | 103 | 99.7 | 91.2 | 98.9 | 115 | 77.8 | 100 | 85.5 | 119 | 109 | 105 | 121 | 96.9 | 104 | 111 | 114 | 60.7 | 107 | 60.5 | 102 | 99.4 | 99.6 | 95.6 | 102 | 105 | 100 | 108 | 61.6 | 78.4 | 63.4 | 89.3
C=C1C(=O)[C@@]23C(CC[C@@H]1[C@H]2O)[C@@]12CO[C@]3(O)[C@@H](O)[C@@H]1C(C)(C)CC[C@@H]2O (some centres not stated) | 102 | 96.9 | 109 | 113 | 119 | 103 | 98.5 | 103 | 70 | 20.5 | 3.53 | 106 | 86.9 | 107 | 101 | 104 | 102 | 86.7 | 67.7 | 37 | 4.45 | 2.3 | 105 | 7.74 | 99.2 | 109 | 113 | 107 | 92 | 97.3 | 49.3 | 9.6 | 2.85
Cc1ccc([N+](=O)[O-])cc1[S+](=O)([O-])N(C)/N=C/c1cnc2ccc(Br)cn12 | 106 | 118 | 96.1 | 75.7 | 74.5 | 13.9 | 8.58 | 5.5 | 5.52 | 4.94 | 4.47 |  |  |  |  |  |  |  |  |  |  |  | 112 | 99.8 | 92.9 | 95.3 | 77.1 | 19.8 | 6.67 | 5.43 | 4.76 | 4.76 | 3.83
N[C@H]2CN(CC12CC1)c3c(F)cc4c(c3Cl)[N@@](C=C(C4=O)C(=O)O)C5C[C@H]5F (some centres not stated) | 90.7 | 93.2 | 89.9 | 88.9 | 92.2 | 86.4 | 84.3 | 84.7 | 90.5 | 60.6 | 84.6 | 107 | 126 | 112 | 119 | 103 | 136 | 73.2 | 113 | 103 | 74.6 | 95.4 | 71.1 | 83 | 92.4 | 83.8 | 92.2 | 92.5 | 75.6 | 98.6 | 91 | 50.1 | 78.7
CC1(CN2CCC(n3c(=O)[nH]c4ccccc43)CC2)OCc2ccccc2-n2cccc21 (configuration not stated) | 102 | 109 | 111 | 100 | 103 | 100 | 107 | 105 | 106 | 68.1 | 76.9 | 88.6 | 90.5 | 89 | 111 | 106 | 95 | 103 | 100 | 94.8 | 79.3 | 66.8 | 106 | 81.4 | 97.6 | 105 | 113 | 94 | 121 | 99.2 | 105 | 79.6 | 96.9
CC(C)(S)[C@@H](N)C(=O)O | 75.7 | 94.7 | 96 | 109 | 72.8 | 108 | 90.5 | 110 | 97.3 | 104 | 20 | 75 | 94.5 | 100 | 100 | 64.8 | 110 | 110 | 107 | 113 | 107 | 13.3 | 91.1 | 99.8 | 105 | 99.4 | 84.9 | 103 | 104 | 107 | 122 | 116 | 16.1
